# Laboratory results reported in patent US20220273678A1 (priority 2020, published 2022).
# pIC50: −log10 of the molar value. “Also recorded” adds a separate entry of the source. Like-named read-outs stand apart in the source and are kept apart here.
# Columns and labels:
# SARS-CoV-2 [1] = test: SARS-CoV-2 replication in HEK293T-hACE2 cells, flow cytometry; type: cell-based; conditions: 100 nM Mito-MES; methanesulfonate
# [2] = test system: SARS-CoV-2 wild type (WT); test: Lung inflammation in K18-hACE2 mice infected with SARS-CoV-2 wild type (cohort A, 3 dpi); type: in vivo
# [3] = test system: murine coronavirus hepatitis virus A-59 (MHV-A59); test: Mouse hepatitis virus A-59 in 17Cl-1 fibroblast cells; type: cell-based; conditions: mouse 17C1-1 fibroblast cells, 1000 nM
# [4] = up to 80 mg orally daily, up to one year; methanesulfonate; cited from earlier work
# SARS-CoV-2 [5] = test: SARS-CoV-2 replication in human airway epithelial (HAE) air-liquid interface cultures, flow cytometry; type: cell-based
# Nrf2, Keap1, HO-1 = test: Nrf2, Keap1 and HO-1 protein levels in Calu3 cells, flow cytometry; type: cell-based, human; conditions: infected and uninfected Calu3
# [6] = test system: IL-6, IL-1β, IL-8, IL-10, TNF-α; type: cell-based, human
# icSARS-CoV-2-mNG [7] = type: cell-based, SARS-CoV-2
# MAVS, TOM70, STING, MX1 = test: MAVS, TOM70, STING and MX1 protein levels in Calu3 cells, flow cytometry and immunofluorescence; type: cell-based, human
# [8] = mice, doses as high as 230 mg/kg/day; cited from earlier work
# icSARS-CoV-2-mNG [9] = type: cell-based, SARS-CoV-2; conditions: methanesulfonate
# Vero cells = test: XTT cell cytotoxicity assay in uninfected Vero cells; type: cell-based, African green monkey; conditions: uninfected cultures, 10-1000 nM
# Procedure: To measure cell viability to determine if there was any treatment-induced cytotoxicity, cells were plated and treated with drugs as described above. Cells were exposed to the same dilution series created for the in vitro efficacy studies. As above, vehicle-treated cells served as the 0% cytotoxicity control. After 24 h, cell viability was measured on a Synergy 2 Biotek microplate reader (Biotek Inc) via the XTT Cell Proliferation Assay Kit (ATCC® 30-1011K™) according to the manufacturer's protocol. Similar data were obtained in three independent experiments.
# IFN-β, IFN-λ = type: cell-based, human; conditions: infected Calu3, 48 hpi, Mito-MES 100-1000 nM; methanesulfonate
# SARS-CoV-2 [10] = test: K18-hACE2 mice infected with SARS-CoV-2 (wild type), lung viral titer and viral protein; type: in vivo
# cleaved caspase 3 [11] = type: cell-based, African green monkey; conditions: Vero, methanesulfonate
# SARS-CoV-2 [12] = type: cell-based
# SARS-CoV-2 [13] = test: microbe, parasite or virus in culture; type: cell-based
# [14] = test system: ACE2, CD147, NRP1 and TMPRSS2; test: Host entry factor protein levels in Calu3 cells, flow cytometry; type: cell-based, human; conditions: methanesulfonate
# [15] = cited from earlier work
# cleaved caspase 3 [16] = type: cell-based, human; conditions: methanesulfonate
# [17] = test system: mitochondrial reactive oxygen species (mito-ROS); test: Mitochondrial reactive oxygen species (MitoSOX Red) and ROS content in Calu3 cells; conditions: 1000 nM Mito-MES; methanesulfonate
# Procedure: Flow cytometry was used to determine the cellular content of Calu3 cells for mitochondrial reactive oxygen species (mito-ROS) based on the median fluorescence intensity (MFI) of the fluorochrome MitoSOX Red and was compared to a negative cell population (fluorescence minus one negative control for staining) (ΔMFI). Flow cytometry was used to determine the percent of SARS-CoV-2 infected Calu3 cells positive for MitoSOX Red. Calu3 and Vero cells were treated with DMSO vehicle control (Ctrl) or the mitochondrial antioxidants MitoTEMPO (25-1000 nM) (72 h) or Mito-MES (25-1000 nM) (72 h) and were infected with a fluorescent mNeonGreen SARS-CoV-2 (icSARS-CoV-2-mNG) (MOI 0.3) (48 h). Immunofluorescent analysis of viral replication and cellular oxidative stress was performed at 48 hpi. […] Viral replication was determined by TCID50-assay (FIG. 3-d), cell cytotoxicity was assessed by the XTT assay in uninfected cells treated with dTPP (0.01-10 μM) (72 h) (FIG. 3-e). […]
# After 24 h (or 48 h, experiments involving 4F) post-infection, cells were collected and stained with 5 μM MitoSOX Red Mitochondrial reactive oxygen species (mito-ROS) indicator for 30 min at 37° C. […] Cells were then analyzed using an LSR Fortessa flow cytometer and FACSDiva software (Becton & Dickinson, San Diego, Calif., USA), and data were analyzed using FlowJo software.
# IL-6, IL-10 = type: cell-based, human
structure (smiles),measurement,setting,value
"COC1=C(OC)C(=O)C(CCCCCCCCCC[P+](c2ccccc2)(c2ccccc2)c2ccccc2)=C(C)C1=O.CS(=O)(=O)[O-] [Mito-MES, 10-(4,5-dimethoxy-2-methyl-3,6-dioxo-1,4-cyclohexadienyl) decyl triphenylphosphonium methanesulfonate]","percent of SARS-CoV-2 infected HEK293T-hACE2 cells, flow cytometry",SARS-CoV-2 [1],significantly reduced the percent of SARS-CoV-2 infected human non-cancerous HEK293T epithelial cells
same,"reduction in IL-6 in the lungs, Luminex","[2]; 4 mg/kg i.p. daily, 3 dpi",at least 2 orders of magnitude
same,"reduction in IL-lb in the lungs, Luminex","[2]; 4 mg/kg i.p. daily, 3 dpi",at least 2 orders of magnitude
same,"frequency of CD45+ immune cells in lungs, flow cytometry",[2]; 3 dpi,reduced frequency of CD45+ immune
same,frequency of NK cells in lungs,[2]; 3 dpi,reduced frequency of NK cells
same,levels of TNFa,[2]; WT SARS-CoV-2,did not change
same,protein levels of IL-18,[2]; cohort A and cohort B,did not change protein levels of IL-18
same,"frequency of neutrophils, macrophages, myeloid DCs, lymphoid DCs, T cells, B cells","[2]; lungs, flow cytometry",did not alter frequency
same,anti-MHV-A59 activity,[3],anti-MHV-A59 activity
same,safety in humans,[4],safety for up to one year in doses as high as 80 mg orally daily has been validated; also recorded: without any serious adverse events
same,Viral replication by flow cytometry in human airway epithelial cells,"SARS-CoV-2 [5]; 1 μM Mito-MES, Control 20.0%, MOI 0.1",0.4%
same,"percent of SARS-CoV-2 infected human lung epithelial cells, flow cytometry","SARS-CoV-2 [5]; HAE ALI cultures, 100 nM Mito-MES",significantly reduced the percent of SARS-CoV-2 infected human lung epithelial cells
same,"percent of SARS-CoV-2 infected FOXJ1+ ciliated epithelial cells, flow cytometry","SARS-CoV-2 [5]; HAE ALI cultures, methanesulfonate",significantly reduced the percent of human FOXJ1 (forkhead box J1) positive ciliated epithelial cells infected with SARS-CoV-2
same,protein levels of Nrf2,"Nrf2, Keap1, HO-1",did not impact protein levels of Nrf2
same,protein levels of Keap (Keap1),"Nrf2, Keap1, HO-1; methanesulfonate","reduced protein levels of the endogenous Nrf2 inhibitor, Keap1; also recorded: reduced protein levels of Keap"
same,"secretion of IL-10, Luminex",[6],tended (p=0.09) to reduce the secretion of IL-10
same,antiviral activity against fluorescent SARS-CoV-2,icSARS-CoV-2-mNG [7],potent and similar antiviral activity
same,MX1 protein levels,"MAVS, TOM70, STING, MX1; Calu3, flow cytometry, 4F 10 μM",increased MX1 protein levels
same,STING protein levels,"MAVS, TOM70, STING, MX1; infected Calu3, flow cytometry, methanesulfonate",did not impact stimulator of interferon genes (STING)
same,"TOM70 protein levels, immunofluorescence","MAVS, TOM70, STING, MX1; infected Calu3 vs vehicle, methanesulfonate",confirmed by immunofluorescence; also recorded: dose-dependent increase in TOM70 protein levels
same,MAVS protein levels,"MAVS, TOM70, STING, MX1; total and infected Calu3, flow cytometry, methanesulfonate",no impact; also recorded: did not modulate MAVS protein levels
same,"TOM70 protein levels, flow cytometry","MAVS, TOM70, STING, MX1; total and infected Calu3, methanesulfonate",increased the translocase of the outer membrane 70 (TOM70) protein levels
same,mutagenicity and toxicity,[8],non-mutagenic and non-toxic
same,antiviral activity against fluorescent SARS-CoV-2,icSARS-CoV-2-mNG [9],potent and similar antiviral activity
same,"cytotoxicity, XTT cell cytotoxicity assay",Vero cells,no observed cytotoxicity
same,secreted and cellular IFN-β and IFN-λ,"IFN-β, IFN-λ",did not impact increase in secreted and cellular IFN-β
same,reduction in SARS-CoV-2 viral titers in the lungs relative to vehicle,"SARS-CoV-2 [10]; 4 mg/kg i.p. from 24 hours before infection, once per day",~2 log units
same,reduction in SARS-CoV-2 viral titers in the lungs relative to vehicle,"SARS-CoV-2 [10]; 4 mg/kg, 8 hours after infection",1.5 log units
same,"SARS-CoV-2 N protein among lung cell subtypes, flow cytometry",SARS-CoV-2 [10]; 3 dpi,had anti-SARS-CoV-2 activity in EPCAM(+) lung epithelial cells
same,viral titers compared to controls (vehicle),"SARS-CoV-2 [10]; K18-hACE2 mice, 4 mg/kg per day intraperitoneally, 72 hpi",viral titers were lower
same,reduction of the replication of SARS-CoV-2,"SARS-CoV-2 [10]; K18-hACE2 mice, overall",at least 2 orders of magnitude
same,"SARS-CoV-2-induced cleavage of caspase 3, immunofluorescence",cleaved caspase 3 [11]; Mito-MES 10-1000 nM,reduced SARS-CoV-2-induced increase in cleavage of caspase 3; also recorded: reduced by Mito-MES treatment
same,"percent of infected cells positive for cleaved caspase 3 and MFI of cleaved caspase 3 per cell, flow cytometry","cleaved caspase 3 [11]; Mito-MES 100 nM, 4F 10 μM",attenuated SARS-CoV-2-induced increase; also recorded: inhibits or reduces SARS-CoV-2-induced increase
same,"release of progeny SARS-CoV-2 virus particles to the cell supernatant, TCID50 assay",SARS-CoV-2 [12],reduction in subsequent release of progeny SARS-CoV-2 virus particles
same,"IC50 against SARS-CoV-2 compared to remdesivir, TCID50 assay",SARS-CoV-2 [12]; Vero E6,three orders of magnitude lower
same,"percent of cells positive for SARS-CoV-2 N and Spike S proteins, flow cytometry","SARS-CoV-2 [12]; Vero cells, methanesulfonate",reduced the percent of cells that were positive for SARS-CoV-2 N and Spike S proteins; also recorded: reduced the percent of infected cells that were positive for N protein
same,antiviral activity by immunofluorescence and qPCR,SARS-CoV-2 [12]; methanesulfonate,confirmed by immunofluorescence (IF) detection of SARS-CoV-2 and by qPCR; also recorded: modest antiviral activity
same,"reduction of release of progeny virus, TCID50 analysis of cell supernatants","SARS-CoV-2 [13]; Calu3, 100 nM and 1000 nM Mito-MES",> 2 logs
same,"nucleocapsid protein expression, time-of-addition","SARS-CoV-2 [13]; Calu3, 1000 nM Mito-MES",inhibited nucleocapsid protein expression in Calu3 cells when added before infection (effect on viral entry) but also even when added 4 hours after infection
same,antiviral activity by immunofluorescence and PCR,"SARS-CoV-2 [13]; Calu3, 10-1000 nM, methanesulfonate",much more potent in Calu3 cells compared to Vero E6 cells; also recorded: potent antiviral activity against SARS-CoV-2 in Calu3 cells at concentrations as low as 10 nM
same,Viral replication by flow cytometry at 48 hpi in Calu3 cells,"SARS-CoV-2 [13]; DMF 10 μM, Mito-MES 100 nM, Mito-MES 100 nM+DMF 10 μM, […]",2.4%
same,Viral replication by flow cytometry at 48 hpi in Calu3 cells,"SARS-CoV-2 [13]; Mito-MES 1000 nM, Brusatol 250 nM, Mito-MES 1000 nM+Brusatol 250 nM",2.9%
same,pIC50,"SARS-CoV-2 [13]; Severe acute respiratory syndrome coronavirus 2, Calu-3, 48 h, read-out: IC50 (FIG. 1-i)",7.70
same,pIC50,"SARS-CoV-2 [13]; Severe acute respiratory syndrome coronavirus 2, Calu-3, 72 h, read-out: IC50, % inhibition of viral replication (FIG. 5-c)",7.52
same,"viral titers of infected cells vs vehicle control, TCID50-assay","SARS-CoV-2 [13]; […], 10 nM Mito-MES, 10 μM DMF, 100 nM 4F, alone or combined as labelled",reduced viral titers
same,lowest concentration that resulted in an observable antiviral effect,SARS-CoV-2 [13]; human lung epithelial cells,10 nM
same,"protein levels of ACE2, TMPRSS2, NRP1 and CD147",[14],did not impact; also recorded: Neither SARS-CoV-2 infection nor Mito-MES significantly modulates protein levels
same,elimination half-life,[15]; based on post 4 h data,about 14 h
same,lung tissue penetration,"[15]; mice, 4 mg/kg/day",good lung tissue penetration
same,accumulation in tissues including liver and kidney,"[15]; mice, >10 days of oral supplementation",50 to 700 pmol/g (wet weight)
same,time of peak plasma concentration,[15]; oral administration,≤ 1 h
same,"SARS-CoV-2-induced cleavage of caspase 3, immunofluorescence","cleaved caspase 3 [16]; Calu3, Mito-MES 10-1000 nM",reduced SARS-CoV-2-induced increase in cleavage of caspase 3; also recorded: reduced by Mito-MES treatment
same,"percent of infected cells positive for cleaved caspase 3 and MFI of cleaved caspase 3 per cell, flow cytometry","cleaved caspase 3 [16]; Calu3, Mito-MES 100 nM, 4F 10 μM",attenuated SARS-CoV-2-induced increase; also recorded: inhibits or reduces SARS-CoV-2-induced increase
same,ROS content of Calu3 cells,[17],increased the ROS content of Calu3 cells
same,secretion / release of IL-6,"IL-6, IL-10",attenuated SARS-CoV-2-induced increase in secretion of IL-6
same,secretion of IL-10,"IL-6, IL-10",reduced secretion of IL-10
